Key:
[1] = test system: CYP3A; assay: Human CYP fingerprinting, ketoconazole inhibitor; assay type: in vitro ADME; settings: 4 μM, human liver microsomes, 30 min, ketoconazole 10 μM
Description: (§1) CYP fingerprinting is well established technique and is used as an indication of potential risk of drug-drug interactions in the pharmaceutical sciences. Compounds of the present invention may be assayed by well known methods, essentially as follows: Compounds are incubated at 37° C. at a final concentration of 4 μM with pooled, mixed gender, human liver microsomes and 1 mM NADPH ([…]) (final conc.) for 0 and 30 min. without any CYP inhibitor and with each CYP inhibitor in separate incubations for 30 min. Each inhibitor is specific for an individual cytochrome P450. The specific inhibitors used for CYPs 2C9, 2D6 and 3A were sulfaphenazole, quinidine and ketoconazole, respectively. Ketoconazole (CYP3A) is made up at 25 mM in DMSO and then diluted in buffer to a final concetration of 10 μM. Quinidine (CYP2D6) is made up at 5 mM in 50/50 acetonitrile/water and then diluted in buffer to a final concetration of 10 μM. Sulfaphenazole (CYP2C9) is made up at 100 mM in DMSO and then diluted in buffer to a final concetration of 5 μM. Samples are analyzed by LC-MS in positive or negative electrospray mode using a Waters Acquity Ultra Performance LC coupled to a MicroMass Q-T of-2 mass spectrometer.
(§2) Data are analyzed using MetaboLynx™ version 4.1. With inhibitor present, a reduction in metabolite peak area of less than 30% (relative to the uninhibited control incubation) receives a designation of low risk of Drug Drug Interaction (DDI), a reduction in peak area between 30% and 70% receives a moderate risk of DDI and a reduction of more than 70% receives a high risk of DDI.

[2] = Rat oral bioavailability; assay type: in vivo; settings: Sprague-Dawley, plasma, fasted male SD rats, IV 0.25 mg/kg, PO 1 mg/kg, based on AUC0-24hr, mean s.d., n=3
Description: Methods for accessing bioavailability are well appreciated in the art. One such reference is Medicinal Research Reviews Vol 21 No. 5 382-396 (2001). Bioavailability of compounds may be estimated essentially as follows.
Cohorts of three or four 250-450 gram male Sprague-Dawley rats or approximately 10 kg Beagle dogs (female or male) are used. […] Dogs are administered i.v. by cannulated cephalic vein and blood collections are by jugular vein. Animals are first dosed at 0.25 mg/kg i.v. and blood samples (0.2 mL) are then collected using EDTA as an anticoagulant at 0.0830, 0.25, 0.50, 1, 2, 4, 8, 12, 24, 48, 72, 96, and 120 hours. Next after at least two days and after 18-24 hours fasting, the animals are dosed at 1.0 mg/kg by oral gavage. During the course of a study the total of blood (ml) collected is not to exceed 1% of total body weight in grams. Should larger blood volumes be required, the sampled blood volume is replace with heparinized whole blood from a donor animal. When using a cross-over study design, rats receive a volume of heparinized whole blood following the final sample of each study day approximately equal to that removed during study.
Compound plasma concentrations are measured by LC/MS/MS assays. Data are then analyzed using standard non-compartmental pharmacokinetic analysis. […]

[3] = target: T1, CYP2D6 (Homo sapiens, UniProt P10635); assay: Human CYP fingerprinting, quinidine inhibitor; assay type: in vitro ADME; settings: 4 μM, human liver microsomes, 30 min, quinidine 10 μM
T1 construct: pooled, mixed gender, human liver microsomes; from tissue; host or cells: pooled, mixed gender human liver microsomes
T1 sequence (P10635 whole entry): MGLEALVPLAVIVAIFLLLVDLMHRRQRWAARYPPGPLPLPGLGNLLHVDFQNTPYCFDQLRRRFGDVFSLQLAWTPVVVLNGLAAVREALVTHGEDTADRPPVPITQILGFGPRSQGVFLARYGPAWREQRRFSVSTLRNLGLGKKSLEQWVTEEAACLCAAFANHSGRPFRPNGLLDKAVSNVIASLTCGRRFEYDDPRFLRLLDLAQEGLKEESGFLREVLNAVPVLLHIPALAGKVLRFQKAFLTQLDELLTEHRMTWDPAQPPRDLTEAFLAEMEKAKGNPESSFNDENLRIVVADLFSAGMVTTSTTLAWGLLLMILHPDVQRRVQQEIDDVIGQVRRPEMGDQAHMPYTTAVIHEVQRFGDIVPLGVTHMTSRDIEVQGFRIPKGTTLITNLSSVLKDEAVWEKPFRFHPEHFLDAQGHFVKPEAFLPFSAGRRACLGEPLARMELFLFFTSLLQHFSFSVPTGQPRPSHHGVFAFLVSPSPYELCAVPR
Description: as §1, §2

Compound: CC(C)(N[C@@H]1C[C@H](c2cccc(OC(F)(F)F)c2)N(c2ccc(C(F)(F)F)cc2)C1=O)c1ccnc(C(F)(F)F)n1.Cc1ccc(S(=O)(=O)O)cc1 [Example 5, (3R,5R)-3-[1-Methyl-1-(2-trifluoromethyl-pyrimidin-4-yl)-ethylamino]-5-(3-trifluoromethoxy-phenyl)-1-(4-trifluoromethyl-phenyl)-pyrrolidin-2-one tosylate]
- Risk of Drug Drug Interaction (DDI) CYP3A [1]: low (a reduction in metabolite peak area of less than 30% (relative to the uninhibited control incubation) receives a designation of low risk of Drug Drug Interaction (DDI))
- bioavailability [2]: 51%
- Risk of Drug Drug Interaction (DDI) CYP2D6 [3]: low (a reduction in metabolite peak area of less than 30% (relative to the uninhibited control incubation) receives a designation of low risk of Drug Drug Interaction (DDI))

From patent publication US8420654B2 (Eli Lilly and Company, priority 2008, dated 2013)
